Measured values as given in ChEMBL document CHEMBL1154197, “Synthesis and biological evaluation of berberine analogues as novel up-regulators for both low-density-lipoprotein receptor and insulin receptor” (2009).
Calls of active or inactive are those of the source. The calls are words filed in the database; no cut-off is given here.

How the values were obtained:
HepG2 [1] = assay: Upregulation of LDLR mRNA expression in human liver HepG2 at 10 ug/mL after 8 hrs by RT-PCR relative to control; assay type: functional
HepG2 [2] = assay: Upregulation of InsR mRNA expression in human liver HepG2 at 10 ug/mL after 8 hrs by RT-PCR relative to control; assay type: functional
HepG2 [3] = assay: Upregulation of InsR […] expression in human liver HepG2 at 10 ug/mL after 12 hrs by flow cytometry; assay type: functional, cell-based
HepG2 [4] = assay: Upregulation of LDLR […] expression in human liver HepG2 at 10 ug/mL after 12 hrs by flow cytometry; assay type: functional, cell-based

SMILES | fold change (FC) (HepG2 [1]) | fold change (FC) (HepG2 [2]) | Activity (HepG2 [3]) | Activity (HepG2 [4])
COc1cc2c(cc1O)-c1cc3cc(OC)c(OC)cc3c[n+]1CC2.[Cl-] | 1.1 | 0.8 | – | –
COc1cc2c(cc1OC)-c1cc3cc(OC)c(OC)cc3c[n+]1CC2.[Cl-] | 1.1 | 1.1 | – | –
COc1cc2cc3[n+](cc2cc1OC)CCc1cc(OC)c(OC)c(OC)c1-3.[Cl-] | 1.1 | 0.8 | – | –
COc1cc2cc3[n+](cc2cc1OC)CCc1cc(O)ccc1-3.[Cl-] | 0.9 | 0.7 | – | –
COc1ccc2cc3[n+](cc2c1OC)CCc1cc(OCc2ccccc2)ccc1-3.[Cl-] | 1.3 | 1.3 | – | –
COc1ccc2cc3[n+](cc2c1OC)CCc1cc(O)ccc1-3.[Cl-] | 0.8 | 1.2 | – | –
COc1cc2c(cc1OCc1ccccc1)-c1cc3ccc(OC)c(OC)c3c[n+]1CC2.[Cl-] | 1.5 | 1.7 | – | –
COc1cc2c(cc1O)CC[n+]1cc3cc(OC)c(OC)cc3cc1-2.[Cl-] [DEHYDRODISCRETINE CHLORIDE] | 1 | 0.6 | – | –
COc1cc2c(c(OC)c1OC)-c1cc3ccc(OC)c(OC)c3c[n+]1CC2.[Cl-] | 1.1 | 1.2 | – | –
COc1cc2cc3[n+](cc2cc1OC)CCc1cc2c(cc1-3)OCO2.[Cl-] [PSEUDOBERBERINE] | 3.1 | 1.2 | – | –
Oc1ccc2cc3[n+](cc2c1)CCc1cc2c(cc1-3)OCO2.[Cl-] | 1.9 | 1.4 | – | –
COc1cc2c(cc1O)CC[n+]1cc3cc(O)ccc3cc1-2.[Cl-] | 1.4 | 1.2 | – | –
COc1cc2c(cc1O)CC[n+]1cc3cc(OC)c(OC)c(OC)c3cc1-2.[Cl-] | 1 | 1 | – | –
COc1ccc2cc3[n+](cc2c1OC)CCc1cc2c(cc1-3)OCO2.[Cl-] [BERBERINE CHLORIDE] | 1.9 | 2.3 | – | –
COc1c(O)ccc2cc3[n+](cc12)CCc1cc2c(cc1-3)OCO2.[Cl-] [THALIFENDINE] | 1.6 | 1.7 | Active | Active
COc1cc2cc3[n+](cc2cc1OC)CCc1cc(OCc2ccccc2)ccc1-3.[Cl-] | 1 | 0.8 | – | –
COc1cc2c(cc1OC)-c1cc3ccc(O)cc3c[n+]1CC2.[Cl-] | 1 | 0.9 | – | –
